Structures can show the parent of a compound that is named as a salt.
Target: T1, 5-lipoxygenase (Homo sapiens, UniProt P09917)
T1 construct: Blood is obtained in 50-100 ml quantities from male donors; endogenous in cells; host or cells: human whole blood (leukocytes) from male donors
T1 sequence (P09917 1-674): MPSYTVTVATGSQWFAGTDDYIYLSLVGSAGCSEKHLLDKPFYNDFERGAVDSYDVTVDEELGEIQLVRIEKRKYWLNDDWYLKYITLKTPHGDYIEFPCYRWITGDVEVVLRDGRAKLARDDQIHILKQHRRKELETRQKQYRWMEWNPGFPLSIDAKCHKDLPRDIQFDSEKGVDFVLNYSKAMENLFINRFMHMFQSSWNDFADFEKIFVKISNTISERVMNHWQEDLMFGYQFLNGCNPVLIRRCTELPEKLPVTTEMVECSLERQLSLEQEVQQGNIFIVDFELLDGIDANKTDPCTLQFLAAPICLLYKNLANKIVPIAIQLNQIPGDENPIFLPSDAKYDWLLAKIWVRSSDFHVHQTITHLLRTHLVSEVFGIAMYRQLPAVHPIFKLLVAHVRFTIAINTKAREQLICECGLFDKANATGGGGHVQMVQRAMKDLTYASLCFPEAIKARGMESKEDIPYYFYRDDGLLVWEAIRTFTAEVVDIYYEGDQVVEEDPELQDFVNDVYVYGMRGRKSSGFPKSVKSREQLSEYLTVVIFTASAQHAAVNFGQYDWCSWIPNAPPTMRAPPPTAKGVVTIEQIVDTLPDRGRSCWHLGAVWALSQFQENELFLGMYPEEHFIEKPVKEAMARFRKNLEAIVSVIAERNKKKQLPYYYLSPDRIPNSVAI
Test: inhibition of 5-lipoxygenase in human whole blood (LTB4)
Assay type: cell-based
Method: The assay of this Example measures the ability of the compounds tested to inhibit 5-lipxygenase in human whole blood.
Blood is obtained in 50-100 ml quantities from male donors. White blood cell counts and differentials are made. Two ml of blood are placed in a 15 ml polypropylene test tube. Compounds are solubilized in dimethylsulfoxide and diluted 1:10 in 10% bovine serum albumin in phosphate buffered saline, pH 7.4 resulting in a final dimethylsulfoxide concentration of 0.1% in the blood. Then, compounds are added to the blood in a shaking water bath at 37° C. for 10 minutes prior to the addition of 30 μM calcium ionophore (A23187; Sigma). After ionophore administration, whole blood samples are mixed and incubated for 20 minutes at 37° C. in a shaking water bath. Incubation is terminated by placing samples in an ice bath and immediately adding ethylene glycol-bis-(β-aminoethyl ether)-N,N,N',N'-tetraacetic acid (10 mM). Samples are mixed and centrifuged at 1200×g for 15 minutes at 4° C. Preparation of samples for evaluation by RIA or ELISA is carried out by the following protocol. Plasma is removed from sample tubes, placed in 15 ml polypropylene test tubes containing 8 ml methanol, and then vortexed to precipitate protein. Samples are stored at -70° C. overnight. The next day, samples are centrifuged at 200×g for 15 minutes at 4° C. to pellet the precipitate. Samples are dried in a Savant speed vac concentrator, reconstituted to original volume with ice cold RIA or ELISA buffer, and stored at -70° C. until assayed. The assay for eicosanoids (LTB4, TxB2, and PGE2) is performed as described by the manufacturer of the [^3 H]-RIA kit or ELISA kit (LTB4 -Amersham, TxB2 and PGE2 - Caymen Chemical).
The total eicosanoid level in 2 ml of blood is calculated and reported as ng/10^6 neutrophils. Significance is determined by a one-way analysis of variance with least significant difference (LSD) comparisons to control (p≤0.05) and IC50 's (μM) are determined by regression analysis (Finney, 1978). Drug effects are expressed as percent change form control values.
Compounds tested in vitro are solubilized in dimethylsulfoxide and diluted 1:10 in 10% bovine serum albumin in phosphate buffer saline resulting in a final dimethylsulfoxide concentration of 0.1% in the blood.

inhibition at 25 µM (25 μM, human whole blood) [%]	Compound	other results
13	CC(C)(C(=O)O)c1ccc2cc(OCc3nc4ccccc4s3)ccc2c1 [Example 34, α,α-Dimethyl-6-(2-benzothiazolylmethoxy)-2-naphthaleneacetic acid]	
54	C[C@H](C(=O)O)c1ccc2cc(OCc3nc4ccccc4s3)ccc2c1 [Example 33, S-(+)-α-Methyl-6-(2-benzothiazolylmethoxy)-2-naphthaleneacetic acid]	
22	C[C@H](C(=O)O)c1ccc2cc(OCc3nc4ccccc4o3)ccc2c1 [Example 46, S-(+)-α-methyl-6-(2-benzoxazolylmethoxy)-2-naphthaleneacetic acid]	
12	C[C@H](C(=O)O)c1ccc2cc(OCc3nc4ccccc4n3C)ccc2c1 [Example 43, S-(α)α-Methyl-6-[(1-methyl-1H-benzimidazol-2-yl)-methoxy]-2-naphthaleneacetic acid]	
28	C[C@H](C(=O)O)c1ccc2cc(OCc3csc(-c4ccccc4)n3)ccc2c1 [Example 35, S-(+)-α-Methyl-6-[(2-phenyl-4-thiazolyl)-methoxy]-2-naphthaleneaceticacid]	
	CC(C)c1ccc2c(c1)c(SC(C)(C)C)c(CC(C)(C)C(=O)O)n2Cc1ccc(Cl)cc1 [L-663,536, reference compound]	inhibition at 3 µM (3 μM, human whole blood): 96%
	CC(c1cc2ccccc2s1)N(O)C(N)=O (stereo not drawn) [Example A-64077, reference compound]	inhibition at 5 µM (read-out: % Inhibition of LTB4): 72%
43	CC(C)(NC(=O)NO)c1ccc2cc(OCc3nc4ccccc4s3)ccc2c1 [Example 37, N-[1-[6-(2-Benzothiazolylmethoxy)-2-naphthalenyl]-1-methyethyl]-N'-hydroxyurea]	IC50 (human whole blood): 50.8 µM
	C[C@H](C(=O)N(C)O)c1ccc2cc(OCc3nc4ccccc4s3)ccc2c1 [Example 41A, S-(+)-N-Hydroxy-α,N-dimethyl-6-(2-benzothiazolylmethoxy)-2-naphthaleneacetamide sodium salt hydrate]	% Inhibition of LTB4 (25 μM, human whole blood, sodium salt hydrate): 89%; IC50 (human whole blood, sodium salt hydrate): 12.2 µM
11	C[C@H](C(=O)O)c1ccc2cc(OCc3ccccn3)ccc2c1 [Example 42, S-(+)-α-Methyl-6-(2-pyridinylmethoxy)-2-naphthaleneacetic acid one tenth hydrate]	
